In PubChem BioAssay AID248 (DTP/NCI, 2004) one finds T/C data, which are given here for 21 compounds.

Several values for one entry are separate records, joined by “and”; a condition that tells them apart may be missing. Equal values may be shown once. Toxic doses and inconclusive results are not listed. Square brackets hold non-standard residues; d marks the D form. Peptide text beside a SMILES is read from it. ξ: configuration not given here. ξK = NCCCCC(N)C(=O)O

The test has as its system L1210 leukemia ip in BDF1 mice, survival T/C. As to the kind of experiment: NCI In Vivo Anticancer Drug Screen. Data for tumor model L1210 Leukemia (intraperitoneal) in B6D2F1 (BDF1) mice. The settings on record: endpoint: mean survival time, higher = longer survival. Put shortly: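 Tumor was transplanted into mice, which were then dosed with test compound or vehicle alone. Survival was recorded for each group, and the treated figure was expressed relative to the control figure.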

Setting [1] is: dose: 100.0 mg/kg/injection, schedule: Q01DX001 (ip), vehicle: saline.
The mark [2] stands for this setting: dose: 100.0 mg/kg/injection, schedule: Q01DX009 (ip), vehicle: saline.
The mark [3] stands for this setting: dose: 200.0 mg/kg/injection, schedule: Q01DX001 (ip), vehicle: saline.
Where [4] appears, read: dose: 200.0 mg/kg/injection, schedule: Q01DX009 (ip), vehicle: saline.
Setting [5] is: dose: 400.0 mg/kg/injection, schedule: Q01DX001 (ip), vehicle: saline.
[6] abbreviates: dose: 100.0 mg/kg/injection, schedule: Q01DX009 (ip), vehicle: Klucel (hydroxypropylcellulose) (HPC).
The mark [7] stands for this setting: dose: 100.0 mg/kg/injection, schedule: Q04DX003 (ip), vehicle: Klucel (hydroxypropylcellulose) (HPC).
Where [8] appears, read: dose: 200.0 mg/kg/injection, schedule: Q01DX009 (ip), vehicle: Klucel (hydroxypropylcellulose) (HPC).
The mark [9] stands for this setting: dose: 200.0 mg/kg/injection, schedule: Q04DX003 (ip), vehicle: Klucel (hydroxypropylcellulose) (HPC).
Setting [10] is: dose: 400.0 mg/kg/injection, schedule: Q01DX009 (ip), vehicle: Klucel (hydroxypropylcellulose) (HPC).
[11] abbreviates: dose: 400.0 mg/kg/injection, schedule: Q04DX003 (ip), vehicle: Klucel (hydroxypropylcellulose) (HPC).
Setting [12] is: dose: 75.0 mg/kg/injection, schedule: Q01DX001 (ip), vehicle: carboxymethylcellulose (CMC).
The mark [13] stands for this setting: dose: 100.0 mg/kg/injection, schedule: Q04DX002 (ip), vehicle: Klucel (hydroxypropylcellulose) (HPC).
[14] abbreviates: dose: 200.0 mg/kg/injection, schedule: Q04DX002 (ip), vehicle: Klucel (hydroxypropylcellulose) (HPC).
[15] abbreviates: dose: 400.0 mg/kg/injection, schedule: Q04DX002 (ip), vehicle: Klucel (hydroxypropylcellulose) (HPC).
[16] abbreviates: dose: 50.0 mg/kg/injection, schedule: Q01DX001 (ip), vehicle: saline.
[17] abbreviates: dose: 100.0 mg/kg/injection, schedule: Q04DX003 (ip), vehicle: saline.
Where [18] appears, read: dose: 200.0 mg/kg/injection, schedule: Q04DX003 (ip), vehicle: saline.
Setting [19] is: dose: 25.0 mg/kg/injection, schedule: Q01DX009 (ip), vehicle: saline.
Where [20] appears, read: dose: 50.0 mg/kg/injection, schedule: Q01DX009 (ip), vehicle: saline.

With `O=C(C=C(C(F)(F)F)C(F)(F)F)c1ccccc1`, the T/C under setting [1] is 100 % of control; the T/C under setting [2] was 91 % of control; the T/C under setting [3] is 94 % of control; the T/C under setting [4] is 100 % of control; the T/C under setting [5] was 109 % of control.
As to `C=C(Cl)CSCC`, the T/C (dose: 100.0 mg/kg/injection, schedule: Q04DX003 (ip), vehicle: saline with Tween-80) is 111 % of control.
As for `COc1cc([N+](=O)[O-])c(C)c(Br)c1N`, the T/C is 100 % of control (dose: 100.0 mg/kg/injection, schedule: Q01DX001 (ip), vehicle: carboxymethylcellulose (CMC)); 100 % of control (dose: 200.0 mg/kg/injection, schedule: Q01DX001 (ip), vehicle: carboxymethylcellulose (CMC)); 96 % of control (dose: 400.0 mg/kg/injection, schedule: Q01DX001 (ip), vehicle: carboxymethylcellulose (CMC)).
Take `CC12CCC(O)(CC1)CC2=O`: the T/C by setting is: (dose: 75.0 mg/kg/injection, schedule: Q04DX002 (ip), vehicle: saline) 95 % of control; (dose: 150.0 mg/kg/injection, schedule: Q04DX002 (ip), vehicle: saline) 95 % of control; (dose: 300.0 mg/kg/injection, schedule: Q04DX002 (ip), vehicle: saline) 103 % of control.
With `CC(c1ccccc1)C(C#N)c1ccccc1` (centres undefined), the T/C is, setting by setting: under setting [6], 97 % of control; under setting [7], 97 % of control; under setting [8], 98 % of control; under setting [9], 92 % of control; under setting [10], 88 % of control; under setting [11], 89 % of control.
As to `NCCCCC(NC(=O)CN)C(=O)O` (centres undefined) (H-Gly-[ξK]-OH), the T/C is, setting by setting: under setting [1], 101 % of control; under setting [3], 103 % of control; under setting [5], 95 % of control.
`NC(=O)c1[nH]cnc1/N=N/N(CCCl)Cc1ccccc1`: the T/C (dose: 100.0 mg/kg/injection, schedule: Q01DX001 (ip), vehicle: Klucel (hydroxypropylcellulose) (HPC)) is 111 % of control; the T/C under setting [6] is 255 % of control; the T/C under setting [7] was 123 % of control; the T/C (dose: 133.0 mg/kg/injection, schedule: Q01DX001 (ip), vehicle: Klucel (hydroxypropylcellulose) (HPC)) is 120 % of control; the T/C under setting [8] is 164 % of control; the T/C under setting [9] was 221 % of control. Besides, the T/C runs as follows: (dose: 400.0 mg/kg/injection, schedule: Q01DX001 (ip), vehicle: Klucel (hydroxypropylcellulose) (HPC)) 174 % of control and 195 % of control; under setting [10], 117 % of control; under setting [11], 296 % of control.
As for `C=CCC[P+](c1ccccc1)(c1ccccc1)c1ccccc1`, the T/C reads like this: (dose: 12.5 mg/kg/injection, schedule: Q04DX003 (ip), vehicle: Klucel (hydroxypropylcellulose) (HPC)) 97 % of control; (dose: 16.0 mg/kg/injection, schedule: Q04DX003 (ip), vehicle: Klucel (hydroxypropylcellulose) (HPC)) 90 % of control; (dose: 25.0 mg/kg/injection, schedule: Q04DX003 (ip), vehicle: Klucel (hydroxypropylcellulose) (HPC)) 104 % of control; (dose: 35.0 mg/kg/injection, schedule: Q04DX003 (ip), vehicle: Klucel (hydroxypropylcellulose) (HPC)) 101 % of control; (dose: 50.0 mg/kg/injection, schedule: Q04DX003 (ip), vehicle: Klucel (hydroxypropylcellulose) (HPC)) 95 % of control and 103 % of control.
For `O=S1(=O)C=C2CCCCC21` (centres undefined), the T/C under setting [12] was 100 % of control.
Regarding `Cn1cnc2cc(N=Cc3ccc(N(CCCl)CCCl)cc3)ccc21`, the T/C reads like this: under setting [13], 106 % of control; under setting [14], 106 % of control; under setting [15], 109 % of control.
`O=C1OC(=O)C2C1C=C(c1ccccc1)C1C3C=CC(C4C(=O)OC(=O)C34)C21` (centres undefined): the T/C under setting [16] was 98 % of control, the T/C under setting [1] is 101 % of control, the T/C under setting [3] was 104 % of control and the T/C under setting [5] was 106 % of control.
Consider `COc1nc(OC)n(C)c(=O)c1OP(=O)(OC)OC`, for which the T/C is, setting by setting: under setting [16], 98 % of control; under setting [1], 93 % of control; under setting [3], 93 % of control; under setting [5], 95 % of control.
As to `N/N=C(\NN)c1ccccc1`, the T/C by setting is: (dose: 100.0 mg/kg/injection, schedule: Q01DX009 (ip), vehicle: saline with Tween-80) 92 % of control; (dose: 200.0 mg/kg/injection, schedule: Q01DX009 (ip), vehicle: saline with Tween-80) 91 % of control; (dose: 400.0 mg/kg/injection, schedule: Q01DX009 (ip), vehicle: saline with Tween-80) 86 % of control.
As to `CC(=O)N(C(C)=O)c1ccc(C)cc1`, the T/C was 109 % of control under setting [2]; 95 % of control under setting [17]; 112 % of control under setting [4]; 108 % of control under setting [18]; 103 % of control (dose: 400.0 mg/kg/injection, schedule: Q04DX003 (ip), vehicle: saline).
With `CC(=O)c1cccc(F)n1`, the T/C under setting [13] is 93 % of control, the T/C under setting [14] is 110 % of control and the T/C under setting [15] was 100 % of control.
As for `[Cl][Nd]([Cl])[Cl]`, the T/C by setting is: (dose: 12.5 mg/kg/injection, schedule: Q01DX009 (ip), vehicle: saline) 98 % of control; under setting [19], 87 % of control; under setting [20], 93 % of control and 91 % of control; under setting [17], 100 % of control; under setting [4], 86 % of control; under setting [18], 100 % of control.
Consider `CCCCNC(=O)C(F)(F)F`, for which the T/C by setting is: (dose: 100.0 mg/kg/injection, schedule: Q01DX001 (ip), vehicle: other) 100 % of control; (dose: 200.0 mg/kg/injection, schedule: Q01DX001 (ip), vehicle: other) 98 % of control; (dose: 400.0 mg/kg/injection, schedule: Q01DX001 (ip), vehicle: other) 98 % of control.
Consider `Cc1cc(C)c(C(=O)CCN(C)C)c(C)c1`, for which the T/C is, setting by setting: under setting [19], 103 % of control; (dose: 25.0 mg/kg/injection, schedule: Q04DX003 (ip), vehicle: saline) 93 % of control; under setting [20], 96 % of control; (dose: 50.0 mg/kg/injection, schedule: Q04DX003 (ip), vehicle: saline) 96 % of control; under setting [17], 93 % of control and 104 % of control.
For the compound `O=C(O)c1cc(N=Nc2ncn[nH]2)ccc1O`, the T/C is 96 % of control (dose: 87.5 mg/kg/injection, schedule: Q04DX003 (ip), vehicle: Klucel (hydroxypropylcellulose) (HPC)); 97 % of control (dose: 175.0 mg/kg/injection, schedule: Q04DX003 (ip), vehicle: Klucel (hydroxypropylcellulose) (HPC)); 100 % of control (dose: 350.0 mg/kg/injection, schedule: Q04DX003 (ip), vehicle: Klucel (hydroxypropylcellulose) (HPC)).
In the case of `O=[N+]([O-])C1CC12c1ccccc1-c1ccccc12` (centres undefined), the T/C is 106 % of control under setting [12]; 103 % of control (dose: 150.0 mg/kg/injection, schedule: Q01DX001 (ip), vehicle: carboxymethylcellulose (CMC)); 97 % of control (dose: 300.0 mg/kg/injection, schedule: Q01DX001 (ip), vehicle: carboxymethylcellulose (CMC)).
Consider `O=c1[nH]cnc2sc3c(c12)CCCC3`, for which the T/C was 94 % of control (dose: 100.0 mg/kg/injection, schedule: Q01DX009 (ip), vehicle: saline sonified); 92 % of control (dose: 100.0 mg/kg/injection, schedule: Q04DX003 (ip), vehicle: saline sonified); 116 % of control (dose: 200.0 mg/kg/injection, schedule: Q01DX009 (ip), vehicle: saline sonified); 98 % of control (dose: 200.0 mg/kg/injection, schedule: Q04DX003 (ip), vehicle: saline sonified); 100 % of control (dose: 400.0 mg/kg/injection, schedule: Q01DX009 (ip), vehicle: saline sonified); 101 % of control (dose: 400.0 mg/kg/injection, schedule: Q04DX003 (ip), vehicle: saline sonified).
